Data set [1] has as its target T1, bovine carbonic anhydrase II (Bos taurus, UniProt P00921).
T1 construct: carbonic anhydrase II (bCAII, ≥3000 W-A units/mg from bovine erythrocytes) from Sigma; purchased Sigma (Taufkirchen, Germany); host or cells: isolated from bovine erythrocytes
As to the kind of experiment: Enzymatic assay of bCA II inhibition, absorbance at 415 nm.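 For all read-outs here: enzyme is carbonic anhydrase II isolated from bovine erythrocytes, with its activity followed photometrically at 415 nm.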 It is filed as biochemical. As to conditions: for inhibition at 1 µM: 1 μM concentration of the inhibitor, triplicate with three technical replicas; for Ki: CA II, from Lineweaver–Burk, Dixon and Cornish Bowden plots, read-out: Inhibition constant Ki.
Procedure: The enzymatic assays have been performed with carbonic anhydrase II (bCAII, ≥3000 W-A units/mg from bovine erythrocytes) from Sigma (Taufkirchen, Germany) using a BMG Labtech Spectrostar Omega apparatus (BMG Labtech, Ortenberg, Germany) measuring λ = 415 nm. Conditions have been described previously [72]. Ki and Ki′ values were determined from Lineweaver–Burk, Dixon and Cornish Bowden plots, respectively.

Molecules are shown by their SMILES.

The term inhibition denotes the drop in the measured response relative to a control, in per cent. Usually melting point stands for the temperature of the solid-liquid transition. Broadly, the Ki is a dissociation constant, usually derived from enzyme kinetics or from competition with a known ligand.

T1 sequence (P00921 whole entry): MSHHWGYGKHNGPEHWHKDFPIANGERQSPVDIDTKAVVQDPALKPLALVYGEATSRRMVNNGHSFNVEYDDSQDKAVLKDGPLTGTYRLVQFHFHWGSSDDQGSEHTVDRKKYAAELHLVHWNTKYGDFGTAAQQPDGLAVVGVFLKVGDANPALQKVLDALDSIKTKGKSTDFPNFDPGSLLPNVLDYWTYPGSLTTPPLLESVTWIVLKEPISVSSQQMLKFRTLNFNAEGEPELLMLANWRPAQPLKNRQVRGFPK

In turn, `Cc1ccc(S(=O)(=O)NCCCCOS(N)(=O)=O)cc1` [14b, 4-[(4-Methylphenyl)sulfonamido]butyl Sulfamate] gave a melting point of 66 to 68 °C. The molecule also had an inhibition at 1 µM in data set [1] (bCA II) of 42.9 ± 0.1%.

Molecule `CC(C)(C)c1cccc(S(=O)(=O)NCCCCCCCCOS(N)(=O)=O)c1` [64b, 8-[(3-(tert-Butyl)phenyl)sulfonamido]octyl Sulfamate] registered a melting point of 57 to 59 °C. Besides, at 1 µM the inhibition in data set [1] (bCA II) was 16 ± 0.4%.

`NS(=O)(=O)OCCCNS(=O)(=O)c1ccccc1` [2b, 3-(Phenylsulfonamido]propyl Sulfamate] came in with a melting point of 64 to 66 °C. For the same molecule, the inhibition at 1 µM in data set [1] (bCA II) was found to be 39.9 ± 0.4%.

In the case of `Cc1ccc(S(=O)(=O)NCCCCCCOS(N)(=O)=O)cc1` [16b, 6-[(4-Methylphenyl)sulfonamido]hexyl Sulfamate], the melting point lay in the range of 49 to 50 °C. Moreover, at 1 µM the inhibition in data set [1] (bCA II) was 40.3 ± 0.7%.

Take `CC(C)(C)c1ccc(S(=O)(=O)NCCCCCCCCCCOS(N)(=O)=O)cc1` [57b, 10-[(4-(tert-Butyl)phenyl)sulfonamido]decyl Sulfamate]: the melting point lay within 92 to 93 °C. The molecule further displayed an inhibition at 1 µM in data set [1] (bCA II) of 20.6 ± 0.6%.

On to `NS(=O)(=O)OCCCCCCCNS(=O)(=O)c1ccccc1` [6b, 7-(Phenylsulfonamido]heptyl Sulfamate], for which the melting point was in the range of 59 to 61 °C. At 1 µM the inhibition in data set [1] (bCA II) was 56 ± 0.8%.

On to `CC(C)c1ccc(S(=O)(=O)NCCCCCCCOS(N)(=O)=O)cc1` [38b, 7-[(4-Isopropylphenyl)sulfonamido]heptyl Sulfamate], for which the melting point is 70 to 72 °C. Also, testing at 1 µM in data set [1] (bCA II) gave an inhibition of 30.3 ± 0.1%.

The molecule `NS(=O)(=O)OCCCCCCCCCCCNS(=O)(=O)c1ccccc1` [10b, 11-(Phenylsulfonamido]undecyl Sulfamate] yielded a melting point of 95 to 97 °C. In data set [1] (bCA II), this molecule yielded an inhibition at 1 µM of 7.2 ± 0.9%.

`Cc1ccc(S(=O)(=O)NCCCCCCCOS(N)(=O)=O)cc1` [17b, 7-[(4-Methylphenyl)sulfonamido]heptyl Sulfamate]: the melting point lay within 85 to 86 °C. In data set [1] (bCA II), this molecule showed an inhibition at 1 µM of 42.8 ± 0.5%.

Molecule `NS(=O)(=O)OCCCCCCCCCNS(=O)(=O)c1ccc(C23CC4CC(CC(C4)C2)C3)cc1` [78b, 9-[(4-(Adamantan-1-yl)phenyl)sulfonamido]nonyl Sulfamate] returned a melting point of 94 to 96 °C. Moreover, the inhibition at 1 µM in data set [1] (bCA II) stood at 36.1 ± 1.8%.

For `Cc1cccc(S(=O)(=O)NCCCCCCCOS(N)(=O)=O)c1` [24b, 7-[(3-Methylphenyl)sulfonamido]heptyl Sulfamate], the melting point was 55 to 57 °C. The inhibition at 1 µM in data set [1] (bCA II) was 27.1 ± 0.9%.

In turn, `Cc1cccc(S(=O)(=O)NCCCOS(N)(=O)=O)c1` [20b, 3-[(3-Methylphenyl)sulfonamido]propyl Sulfamate] showed a melting point of 73 to 74 °C. This molecule displayed an inhibition at 1 µM in data set [1] (bCA II) of 48.4 ± 0.1%.

In turn, `NS(=O)(=O)OCCCCCCCCCCNS(=O)(=O)c1ccccc1` [9b, 10-(Phenylsulfonamido]decyl Sulfamate] came in with a melting point of 89 to 91 °C. This molecule also returned an inhibition at 1 µM in data set [1] (bCA II) of 10.7 ± 0.4%.

As for `CC(C)(C)c1ccc(S(=O)(=O)NCCOS(N)(=O)=O)cc1` [49b, 2-[(4-(tert-Butyl)phenyl)sulfonamido]ethyl Sulfamate], the melting point was in the range of 92 to 93 °C. The Ki in data set [1] turned out to be 670 ± 50 nM. Further, in data set [1] (bCA II), the mode of inhibition entry was “competitive inhibitor” and testing at 1 µM gave an inhibition of 75.6 ± 0.4%.

`CC(C)(C)c1ccc(S(=O)(=O)NCCCCCCCCCOS(N)(=O)=O)cc1` [56b, 9-[(4-(tert-Butyl)phenyl)sulfonamido]nonyl Sulfamate] showed a melting point of 106 to 107 °C. The inhibition at 1 µM in data set [1] (bCA II) came to 10 ± 0.6%.

In turn, `NS(=O)(=O)OCCCCCCCCCNS(=O)(=O)c1ccc(C2CCCCC2)cc1` [75b, 9-[(4-Cyclohexylphenyl)sulfonamido]nonyl Sulfamate] showed a melting point of 88 to 89 °C. Also, the inhibition at 1 µM in data set [1] (bCA II) is 32.1 ± 0.8%.

Turning to `NS(=O)(=O)OCCCCCCCCNS(=O)(=O)c1ccccc1` [7b, 8-(Phenylsulfonamido]octyl Sulfamate], the melting point fell in the range of 77 to 78 °C. The same molecule returned an inhibition at 1 µM in data set [1] (bCA II) of 60.2 ± 0.7%.

For the molecule `Cc1cccc(S(=O)(=O)NCCOS(N)(=O)=O)c1` [19b, 2-[(3-Methylphenyl)sulfonamido]ethyl Sulfamate], the melting point lay in the range of 36 to 38 °C. In addition, the inhibition at 1 µM in data set [1] (bCA II) was found to be 59.5 ± 0.1%.

The molecule `CC(C)(C)c1ccc(S(=O)(=O)NCCCCCCCCOS(N)(=O)=O)cc1` [55b, 8-[(4-(tert-Butyl)phenyl)sulfonamido]octyl Sulfamate] registered a melting point of 79 to 81 °C. This molecule registered an inhibition at 1 µM in data set [1] (bCA II) of 21.3 ± 1%.

Molecule `NS(=O)(=O)OCCCCCCCCCCNS(=O)(=O)c1ccc(C23CC4CC(CC(C4)C2)C3)cc1` [79b, 10-[(4-(Adamantan-1-yl)phenyl)sulfonamido]decyl Sulfamate] yielded a melting point of 87 to 89 °C. In data set [1] (bCA II), this molecule came in with an inhibition at 1 µM of 40.1 ± 0.8%.

Regarding `NS(=O)(=O)OCCCCCCCCCNS(=O)(=O)c1ccccc1` [8b, 9-(Phenylsulfonamido]nonyl Sulfamate], the melting point is 82 to 84 °C. In data set [1] (bCA II), the inhibition at 1 µM was 55.4 ± 0.7%.

`CC(C)c1ccc(S(=O)(=O)NCCCCOS(N)(=O)=O)cc1` [35b, 4-[(4-Isopropylphenyl)sulfonamido]butyl Sulfamate] had a melting point of 95 to 97 °C. In data set [1] (bCA II), this molecule displayed an inhibition at 1 µM of 43.7 ± 0.4%.

`CC(C)(C)c1ccc(S(=O)(=O)NCCCCCCCOS(N)(=O)=O)cc1` [54b, 7-[(4-(tert-Butyl)phenyl)sulfonamido]heptyl Sulfamate] returned a melting point of 95 to 96 °C. For the same molecule, the inhibition at 1 µM in data set [1] (bCA II) was determined as 28.4 ± 0.4%.

In turn, `Cc1cccc(S(=O)(=O)NCCCCOS(N)(=O)=O)c1` [21b, 4-[(3-Methylphenyl)sulfonamido]butyl Sulfamate] gave a melting point of 62 to 64 °C. This molecule also had an inhibition at 1 µM in data set [1] (bCA II) of 32.2 ± 0.6%.

On to `NS(=O)(=O)OCCCNS(=O)(=O)c1ccc(C2CCCCC2)cc1` [69b, 3-[(4-Cyclohexylphenyl)sulfonamido]propyl Sulfamate], for which the melting point is 113 to 114 °C. This molecule displayed an inhibition at 1 µM in data set [1] (bCA II) of 43.1 ± 1.5%.

The molecule `Cc1ccc(S(=O)(=O)NCCOS(N)(=O)=O)cc1` [12b, 2-[(4-Methylphenyl)sulfonamido]ethyl Sulfamate] gave a melting point of 79 to 81 °C. In data set [1], the Ki was 760 ± 30 nM. This molecule registered an inhibition at 1 µM in data set [1] (bCA II) of 75.8 ± 0.6%.

Molecule `Cc1ccc(S(=O)(=O)NCCCOS(N)(=O)=O)cc1` [13b, 3-[(4-Methylphenyl)sulfonamido]propyl Sulfamate] yielded a melting point of 86 to 87 °C. For the same molecule, testing at 1 µM in data set [1] (bCA II) gave an inhibition of 63.8 ± 0.8%.

As for `NS(=O)(=O)OCCCCCCCCCCCCNS(=O)(=O)c1ccccc1` [11b, 12-(Phenylsulfonamido]dodecyl Sulfamate], the melting point lay in the range of 102 to 103 °C. Moreover, the inhibition at 1 µM in data set [1] (bCA II) worked out at 5.9 ± 0.9%.

`CC(C)c1ccc(S(=O)(=O)NCCOS(N)(=O)=O)cc1` [33b, 2-[(4-Isopropylphenyl)sulfonamido]ethyl Sulfamate] registered a melting point of 81 to 82 °C. In addition, the Ki in data set [1] was 840 ± 20 nM. For the same molecule, the inhibition at 1 µM in data set [1] (bCA II) is 63.2 ± 0.4%.

Take `CC(C)c1ccc(S(=O)(=O)NCCCCCCCCOS(N)(=O)=O)cc1` [39b, 8-[(4-Isopropylphenyl)sulfonamido]octyl Sulfamate]: the melting point lay in the range of 69 to 70 °C. In data set [1] (bCA II), this molecule gave an inhibition at 1 µM of 28.1 ± 0.5%.

Take `Cc1ccc(S(=O)(=O)NCCCCCOS(N)(=O)=O)cc1` [15b, 5-[(4-Methylphenyl)sulfonamido]pentyl Sulfamate]: the melting point lay in the range of 94 to 95 °C. The molecule also gave an inhibition at 1 µM in data set [1] (bCA II) of 58.9 ± 0.2%.

On to `CC(C)(C)c1ccc(S(=O)(=O)NCCCCCCOS(N)(=O)=O)cc1` [53b, 6-[(4-(tert-Butyl)phenyl)sulfonamido]hexyl Sulfamate], for which the melting point lay within 89 to 90 °C. 1 µM produced 29.1 ± 0.9% inhibition in data set [1] (bCA II).

Turning to `NS(=O)(=O)OCCCCCCNS(=O)(=O)c1ccccc1` [5b, 6-(Phenylsulfonamido]hexyl Sulfamate], the melting point was in the range of 64 to 66 °C. The molecule also showed an inhibition at 1 µM in data set [1] (bCA II) of 56 ± 0.5%.

In the case of `NS(=O)(=O)OCCCCCCCCNS(=O)(=O)c1ccc(C23CC4CC(CC(C4)C2)C3)cc1` [77b, 8-[(4-(Adamantan-1-yl)phenyl)sulfonamido]octyl Sulfamate], the melting point was in the range of 85 to 86 °C. In data set [1] (bCA II), this molecule registered an inhibition at 1 µM of 32.6 ± 0.4%.

Molecule `Cc1ccc(S(=O)(=O)NCCCCCCCCOS(N)(=O)=O)cc1` [18b, 8-[(4-Methylphenyl)sulfonamido]octyl Sulfamate] showed a melting point of 98 to 100 °C. The molecule also yielded an inhibition at 1 µM in data set [1] (bCA II) of 54.7 ± 0.6%.

`CC(C)(C)c1ccc(S(=O)(=O)NCCCCOS(N)(=O)=O)cc1` [51b, 4-[(4-(tert-Butyl)phenyl)sulfonamido]butyl Sulfamate]: the melting point fell in the range of 100 to 102 °C. The inhibition at 1 µM in data set [1] (bCA II) is 44.9 ± 0.4%.

On to `NS(=O)(=O)OCCCCCCNS(=O)(=O)c1ccc(C2CCCCC2)cc1` [72b, 6-[(4-Cyclohexylphenyl)sulfonamido]hexyl Sulfamate], for which the melting point fell in the range of 86 to 88 °C. In data set [1] (bCA II), this molecule had an inhibition at 1 µM of 8.6 ± 0.6%.

Consider `O=S(=O)(NCCCCCCO)c1ccccc1` [5a, N-(6-Hydroxyhexyl)benzene Sulfonamide], for which the melting point was 40 to 42 °C.

For `O=S(=O)(NCCCCCCCCCO)c1ccc(C23CC4CC(CC(C4)C2)C3)cc1` [78a, 4-(Adamantan-1-yl)-N-(9-hydroxynonyl)benzene Sulfonamide], the melting point is 84 to 85 °C.

In turn, `Cc1ccc(S(=O)(=O)NCCCCCCO)cc1` [16a, N-(6-Hydroxyhexyl)-4-methylbenzene Sulfonamide] gave a melting point of 49 to 51 °C.

In turn, `CC(C)(C)c1ccc(S(=O)(=O)NCCCCCO)cc1` [52a, 4-(tert-Butyl)-N-(5-hydroxypentyl)benzene Sulfonamide] gave a melting point of 53 to 54 °C.

The molecule `O=S(=O)(NCCO)c1ccccc1` [1a, N-(2-Hydroxyethyl)benzene Sulfonamide] registered a melting point of 78 to 79 °C.

The values are drawn from PMC11243685, “Synthesis and Enzymatic Evaluation of a Small Library of Substituted Phenylsulfonamido-Alkyl Sulfamates towards Carbonic Anhydrase II” (Molecules, 2024).
